Measurements taken from article PMC5513037, “Examining the influence of specificity ligands and ATP-competitive ligands on the overall effectiveness of bivalent kinase inhibitors” (Proteome Science, 2017).

Columns and labels:
[1] = biological target: PSKH2 (Homo sapiens, UniProt Q96QS6); experiment: biochemical
[2] = biological target: T1, PIK3R4 (Homo sapiens, UniProt Q99570); experiment: Imatinib-matrix competition in K562 lysate; format: binding; settings: read-out: RB50 (the source's name)
T1 construct: endogenous in cells; host or cells: K562

[3] = biological target: BRDT (Homo sapiens, UniProt Q58F21); experiment: biochemical
[4] = biological target: T2, GSK3A (Homo sapiens, UniProt P49840); experiment: KAM-matrix competition in K562 lysate; format: binding
T2 construct: endogenous in cells; host or cells: K562
T2 sequence (P49840 whole entry): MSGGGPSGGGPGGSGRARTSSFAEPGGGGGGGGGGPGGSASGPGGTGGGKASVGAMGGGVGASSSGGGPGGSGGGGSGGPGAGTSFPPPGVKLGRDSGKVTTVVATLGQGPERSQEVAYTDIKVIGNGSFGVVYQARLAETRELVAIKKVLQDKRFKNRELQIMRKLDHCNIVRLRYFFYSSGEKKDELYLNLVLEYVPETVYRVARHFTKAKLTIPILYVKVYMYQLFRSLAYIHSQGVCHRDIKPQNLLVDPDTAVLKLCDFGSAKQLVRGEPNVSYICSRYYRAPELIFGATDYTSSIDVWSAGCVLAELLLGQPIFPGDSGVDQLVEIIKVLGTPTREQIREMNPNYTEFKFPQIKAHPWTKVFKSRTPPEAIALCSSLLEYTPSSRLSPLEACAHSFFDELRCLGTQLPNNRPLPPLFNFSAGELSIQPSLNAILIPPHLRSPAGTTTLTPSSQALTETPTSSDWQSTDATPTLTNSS
Experimental: (§1) For synthesis of KAM-derivatized resin, packed NHS-activated sepharose 4 fast flow resin (volume = 2 mL; GE Healthcare) was washed with anhydrous DMSO (3 × 10 mL). To the washed NHS-activated sepharose resin was added 0.5 mM KAM in anhydrous DMSO (8 mL; 2 μmol compound/mL of resin), followed by the addition of triethylamine (30 μL). The reaction mixture was vortexed to mix and pelleted by centrifugation (100 x g, 2 min). An aliquot of the supernatant (50 μL) was saved for LC/MS analysis. The reaction mixture was allowed incubate overnight at room temp with end-over-end rotating agitation. On the following day, the reaction mixture was pelleted by centrifugation (100 x g, 2 min). An aliquot of the supernatant (50 μL) was saved for LC/MS analysis. […] 2-(2-Aminoethoxy)ethanol (100 μL; Sigma-Aldrich) was added to the reaction mixture, vortexed, and incubate overnight at room temp with end-over-end agitation. The KAM-derivatized resin was then washed with anhydrous DMSO (3 × 10 mL) and 95% EtOH (3 × 10 mL).
(§2) Data were visualized for further analysis using Spotfire DXP.

[5] = biological target: T3, NEK9 (Homo sapiens, UniProt Q8TD19); experiment: KAM-matrix competition in K562 lysate; format: binding
T3 construct: endogenous in cells; host or cells: K562
T3 sequence (Q8TD19 1-979): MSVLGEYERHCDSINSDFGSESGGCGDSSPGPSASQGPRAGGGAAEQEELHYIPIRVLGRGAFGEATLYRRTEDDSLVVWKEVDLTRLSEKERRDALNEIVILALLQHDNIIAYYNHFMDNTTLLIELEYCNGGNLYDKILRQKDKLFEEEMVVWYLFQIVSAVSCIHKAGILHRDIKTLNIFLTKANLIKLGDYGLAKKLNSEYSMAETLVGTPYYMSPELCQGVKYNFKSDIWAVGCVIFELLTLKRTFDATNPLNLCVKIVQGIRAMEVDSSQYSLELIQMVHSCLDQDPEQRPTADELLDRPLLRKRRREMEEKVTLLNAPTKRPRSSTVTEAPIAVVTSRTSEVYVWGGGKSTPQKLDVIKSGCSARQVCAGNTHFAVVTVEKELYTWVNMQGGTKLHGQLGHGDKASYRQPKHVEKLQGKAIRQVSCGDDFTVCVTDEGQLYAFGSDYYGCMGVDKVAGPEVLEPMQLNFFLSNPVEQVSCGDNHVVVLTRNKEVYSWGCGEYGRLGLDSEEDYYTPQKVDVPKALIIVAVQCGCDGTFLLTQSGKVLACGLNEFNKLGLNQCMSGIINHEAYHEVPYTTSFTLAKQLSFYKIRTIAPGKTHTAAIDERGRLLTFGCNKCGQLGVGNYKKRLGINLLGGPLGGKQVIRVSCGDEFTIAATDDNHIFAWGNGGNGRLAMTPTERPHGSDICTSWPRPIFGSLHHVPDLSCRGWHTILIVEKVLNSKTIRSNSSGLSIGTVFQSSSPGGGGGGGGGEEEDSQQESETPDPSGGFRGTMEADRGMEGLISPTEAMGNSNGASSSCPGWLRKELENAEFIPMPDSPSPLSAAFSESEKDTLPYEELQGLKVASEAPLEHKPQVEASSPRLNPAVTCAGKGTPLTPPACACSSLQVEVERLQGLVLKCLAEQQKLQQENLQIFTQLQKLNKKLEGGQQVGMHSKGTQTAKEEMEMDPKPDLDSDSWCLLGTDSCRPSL
Experimental: as §1, §2

[6] = biological target: T4, CDK9 (Homo sapiens, UniProt P50750); experiment: KAM-matrix competition in K562 lysate; format: binding
T4 construct: endogenous in cells; host or cells: K562
T4 sequence (P50750 whole entry): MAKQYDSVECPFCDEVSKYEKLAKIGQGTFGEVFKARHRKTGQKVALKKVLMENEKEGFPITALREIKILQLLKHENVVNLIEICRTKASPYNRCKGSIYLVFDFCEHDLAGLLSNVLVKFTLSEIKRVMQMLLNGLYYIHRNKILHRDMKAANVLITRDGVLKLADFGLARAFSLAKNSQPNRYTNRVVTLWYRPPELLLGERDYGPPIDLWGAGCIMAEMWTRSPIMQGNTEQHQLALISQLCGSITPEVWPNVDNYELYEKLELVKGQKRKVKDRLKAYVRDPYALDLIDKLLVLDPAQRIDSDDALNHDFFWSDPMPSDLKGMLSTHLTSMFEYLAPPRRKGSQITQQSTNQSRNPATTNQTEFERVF
T4 sequence (O60563 whole entry partner): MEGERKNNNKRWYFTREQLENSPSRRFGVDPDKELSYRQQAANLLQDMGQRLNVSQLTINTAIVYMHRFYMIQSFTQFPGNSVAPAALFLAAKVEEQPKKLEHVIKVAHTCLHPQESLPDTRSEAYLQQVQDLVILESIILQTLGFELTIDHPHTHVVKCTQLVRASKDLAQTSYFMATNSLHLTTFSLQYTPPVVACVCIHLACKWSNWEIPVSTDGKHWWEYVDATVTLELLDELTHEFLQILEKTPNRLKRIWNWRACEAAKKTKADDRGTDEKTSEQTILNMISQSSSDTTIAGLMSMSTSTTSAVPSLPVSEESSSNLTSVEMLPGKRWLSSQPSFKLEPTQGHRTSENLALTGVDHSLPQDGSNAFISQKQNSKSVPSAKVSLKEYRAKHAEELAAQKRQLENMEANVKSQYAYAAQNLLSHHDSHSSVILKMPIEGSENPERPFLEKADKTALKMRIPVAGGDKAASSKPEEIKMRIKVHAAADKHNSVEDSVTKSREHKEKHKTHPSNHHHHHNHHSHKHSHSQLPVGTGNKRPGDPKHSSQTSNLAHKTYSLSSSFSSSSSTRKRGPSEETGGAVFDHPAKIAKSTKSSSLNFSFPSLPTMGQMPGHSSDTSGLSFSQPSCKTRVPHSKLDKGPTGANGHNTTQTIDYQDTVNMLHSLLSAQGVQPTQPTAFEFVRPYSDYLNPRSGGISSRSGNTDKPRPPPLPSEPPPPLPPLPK
Experimental: as §1, §2

[7] = biological target: T5, GSK3B (Homo sapiens, UniProt P49841); experiment: KAM-matrix competition in K562 lysate; format: binding
T5 construct: endogenous in cells; host or cells: K562
T5 sequence (P49841 whole entry): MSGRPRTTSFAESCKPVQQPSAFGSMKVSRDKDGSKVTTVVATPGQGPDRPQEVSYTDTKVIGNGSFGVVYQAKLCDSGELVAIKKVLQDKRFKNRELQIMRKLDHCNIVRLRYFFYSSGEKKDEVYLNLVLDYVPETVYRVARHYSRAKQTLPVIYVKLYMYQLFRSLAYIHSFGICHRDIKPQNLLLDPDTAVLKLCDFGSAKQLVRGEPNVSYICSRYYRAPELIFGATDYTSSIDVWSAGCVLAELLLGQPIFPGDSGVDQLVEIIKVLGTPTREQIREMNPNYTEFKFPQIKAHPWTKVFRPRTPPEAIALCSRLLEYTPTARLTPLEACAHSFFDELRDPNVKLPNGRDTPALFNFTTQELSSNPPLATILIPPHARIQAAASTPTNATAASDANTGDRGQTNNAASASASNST
Experimental: as §1, §2

[8] = biological target: T6, AAK1 (Homo sapiens, UniProt Q2M2I8); experiment: KAM-matrix competition in K562 lysate; format: binding
T6 construct: endogenous in cells; host or cells: K562
T6 sequence (Q2M2I8 whole entry): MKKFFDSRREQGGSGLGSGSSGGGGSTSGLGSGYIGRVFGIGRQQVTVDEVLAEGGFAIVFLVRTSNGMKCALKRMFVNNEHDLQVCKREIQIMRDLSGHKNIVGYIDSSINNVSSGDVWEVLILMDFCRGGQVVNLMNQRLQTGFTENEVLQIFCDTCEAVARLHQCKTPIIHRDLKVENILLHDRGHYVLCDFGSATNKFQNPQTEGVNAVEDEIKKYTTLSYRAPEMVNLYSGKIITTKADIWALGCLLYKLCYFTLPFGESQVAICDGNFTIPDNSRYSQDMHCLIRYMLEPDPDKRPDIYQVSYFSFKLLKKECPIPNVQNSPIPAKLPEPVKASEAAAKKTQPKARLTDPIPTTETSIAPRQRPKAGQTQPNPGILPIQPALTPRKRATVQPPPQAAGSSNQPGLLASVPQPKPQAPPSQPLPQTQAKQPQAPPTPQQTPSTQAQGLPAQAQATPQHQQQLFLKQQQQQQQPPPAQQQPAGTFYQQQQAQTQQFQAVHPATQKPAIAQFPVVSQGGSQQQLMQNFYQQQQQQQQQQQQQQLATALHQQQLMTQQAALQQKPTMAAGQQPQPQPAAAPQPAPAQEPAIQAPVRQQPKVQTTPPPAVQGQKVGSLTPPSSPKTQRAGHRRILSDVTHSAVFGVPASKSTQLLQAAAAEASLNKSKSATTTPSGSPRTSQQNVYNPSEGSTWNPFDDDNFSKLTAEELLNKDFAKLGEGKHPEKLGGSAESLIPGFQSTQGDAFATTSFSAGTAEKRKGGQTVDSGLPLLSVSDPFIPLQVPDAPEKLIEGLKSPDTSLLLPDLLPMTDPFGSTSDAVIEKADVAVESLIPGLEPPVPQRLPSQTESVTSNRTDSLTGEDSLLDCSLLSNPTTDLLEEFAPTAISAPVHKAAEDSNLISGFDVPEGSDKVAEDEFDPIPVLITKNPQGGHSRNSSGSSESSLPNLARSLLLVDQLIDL
Experimental: as §1, §2

Chain of PSKH2 (Q96QS6 whole entry): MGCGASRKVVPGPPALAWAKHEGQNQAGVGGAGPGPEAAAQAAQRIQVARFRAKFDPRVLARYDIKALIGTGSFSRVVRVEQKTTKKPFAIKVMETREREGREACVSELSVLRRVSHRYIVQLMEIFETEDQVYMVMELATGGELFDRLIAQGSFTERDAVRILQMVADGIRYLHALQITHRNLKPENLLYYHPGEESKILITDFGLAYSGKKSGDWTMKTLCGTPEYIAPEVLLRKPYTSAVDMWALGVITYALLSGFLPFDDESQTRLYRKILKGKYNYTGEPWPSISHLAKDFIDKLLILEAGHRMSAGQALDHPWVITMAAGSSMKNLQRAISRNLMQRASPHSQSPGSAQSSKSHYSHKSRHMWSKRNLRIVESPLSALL

## Cc1ccc(NC(=O)c2ccc(CN3CCN(C)CC3)cc2)cc1Nc1nccc(-c2cccnc2)n1 [Imatinib]
[1]
  IC50: > 10000 nM
[2]
  IC50: > 10000 nM
[3]
  IC50: > 10000 nM

## N#CCc1ccc(Nc2nc(NCCCN)cc(Nc3cc(C4CC4)[nH]n3)n2)cc1 [KAM]
[4]; 0.001 uM KAM
  median Log10 fold change: 0.002359
[4]; 0.01 uM KAM
  median Log10 fold change: -0.1849
[4]; 0.1 uM KAM
  median Log10 fold change: -0.4791
[4]; 1 uM KAM
  median Log10 fold change: -0.5469
[4]; 10 uM KAM
  median Log10 fold change: -0.4904
[4]; GSK3A, KAM-based affinity matrix, K562 lysates, read-out: RB50 (the source's name)
  IC50: 37 nM
[5]; 0.001 uM KAM
  median Log10 fold change: 0.04943
[5]; 0.01 uM KAM
  median Log10 fold change: -0.06045
[5]; 0.1 uM KAM
  median Log10 fold change: -0.3899
[5]; 1 uM KAM
  median Log10 fold change: -0.6054
[5]; 10 uM KAM
  median Log10 fold change: -0.6016
[5]; NEK9, KAM-based affinity matrix, K562 lysates, read-out: RB50 (the source's name)
  IC50: 86 nM
[6]; 0.001 uM KAM
  median Log10 fold change: -0.01348
[6]; 0.01 uM KAM
  median Log10 fold change: -0.02502
[6]; 0.1 uM KAM
  median Log10 fold change: -0.3345
[6]; 1 uM KAM
  median Log10 fold change: -0.6226
[6]; 10 uM KAM
  median Log10 fold change: -0.7136
[6]; CDK9, KAM-based affinity matrix, K562 lysates, read-out: RB50 (the source's name)
  IC50: 112 nM
[7]; 0.001 uM KAM
  median Log10 fold change: 0.01354
[7]; 0.01 uM KAM
  median Log10 fold change: -0.16
[7]; 0.1 uM KAM
  median Log10 fold change: -0.4584
[7]; 1 uM KAM
  median Log10 fold change: -0.606
[7]; 10 uM KAM
  median Log10 fold change: -0.568
[7]; GSK3B, KAM-based affinity matrix, K562 lysates, read-out: RB50 (the source's name)
  IC50: 45 nM
[8]; 0.001 uM KAM
  median Log10 fold change: -0.03432
[8]; 0.01 uM KAM
  median Log10 fold change: -0.41
[8]; 0.1 uM KAM
  median Log10 fold change: -0.6175
[8]; 1 uM KAM
  median Log10 fold change: -0.6778
[8]; 10 uM KAM
  median Log10 fold change: -0.7219
[8]; AAK1, KAM-based affinity matrix, K562 lysates, read-out: RB50 (the source's name)
  IC50: 8 nM
